Experimental data published in patent US7049138B2, “Epitope-tagged beta-amyloid precursor protein and DNA encoding the same” (Bristol-Myers Squibb Company, priority 1999, dated 2006).

System: HA 11 A-beta (1-40) accumulation in HEK 293/HA 11 beta-APP 695 cells
Test: Accumulation of HA 11 A-beta (1-40) in HEK 293/HA 11 beta-APP 695 conditioned medium, position 40-specific ELISA
Assay type: cell-based, human
Details: 96-well, serum-free medium with 0.2% BSA, 16 hours, dose-response, versus DMSO vehicle
Experimental: HEK 293/HA 11 beta-APP 695 cells were plated at confluence in 96-well plates and the indicated dose-response of either MDL 28170 (panel A), or Brefeldin A (panel B) was added for 16 hours. The accumulation of HA 11 A-beta (1-40) (position 40-specific antibody; QCB) was determined as in FIG. 5. Results are expressed as percentage inhibition of HA 11 A-beta (1-40) accumulation in comparison to wells incubated with vehicle (dimethyl sulfoxide, DMSO) alone.
Panel A: Immulon 2 microtiter wells were coated with mAB anti-HA 11 (5 μg/mL in PBS, 4° C., overnight), washed with PBS and blocked with 5% BSA in PBS. […] The change of absorbance of duplicate wells was determined at […] and results corrected for binding of antibodies to wells in the absence of peptide. […]
HEK 293/HA 11 beta-APP 695 cells were plated in 96-well tissue culture dishes in serum-free medium containing 0.2% BSA (1×10^6 cells/cm^2). The conditioned medium was harvested at the indicated times and analyzed for the presence of HA 11 A-beta position 40, as in example 4. HA 11 A-beta polypeptides ending at position 42 were detected in a similar ELISA system. […] Bound HA 11 A-beta 42 was detected with biotin-labeled mAB 108 (specific for the neo-epitope generated upon cleavage of beta-APP by […]), followed by HRP-labeled streptavidin and TMB substrate. […]

MDL 28170
HA 11 A-beta accumulation in conditioned medium: decrease in the HA 11 A-beta accumulation

C[C@H]1CCC/C=C/[C@@H]2C[C@H](O)C[C@H]2[C@H](O)/C=C/C(=O)O1 [brefeldin A, Brefeldin A]
HA 11 A-beta accumulation in conditioned medium: decrease in the HA 11 A-beta accumulation
